Laboratory results published in patent US8541581B2, “Inhibitors of fatty acid amide hydrolase” (Infinity Pharmaceuticals, Inc., priority 2009, dated 2013).

Molecular target: T1, human FAAH (Homo sapiens, UniProt O00519)
T1 construct: host or cells: COS-7 cells, transient transfection; 13,000 g membrane fraction solubilized in 1% Triton X-100
T1 sequence (O00519 1-579): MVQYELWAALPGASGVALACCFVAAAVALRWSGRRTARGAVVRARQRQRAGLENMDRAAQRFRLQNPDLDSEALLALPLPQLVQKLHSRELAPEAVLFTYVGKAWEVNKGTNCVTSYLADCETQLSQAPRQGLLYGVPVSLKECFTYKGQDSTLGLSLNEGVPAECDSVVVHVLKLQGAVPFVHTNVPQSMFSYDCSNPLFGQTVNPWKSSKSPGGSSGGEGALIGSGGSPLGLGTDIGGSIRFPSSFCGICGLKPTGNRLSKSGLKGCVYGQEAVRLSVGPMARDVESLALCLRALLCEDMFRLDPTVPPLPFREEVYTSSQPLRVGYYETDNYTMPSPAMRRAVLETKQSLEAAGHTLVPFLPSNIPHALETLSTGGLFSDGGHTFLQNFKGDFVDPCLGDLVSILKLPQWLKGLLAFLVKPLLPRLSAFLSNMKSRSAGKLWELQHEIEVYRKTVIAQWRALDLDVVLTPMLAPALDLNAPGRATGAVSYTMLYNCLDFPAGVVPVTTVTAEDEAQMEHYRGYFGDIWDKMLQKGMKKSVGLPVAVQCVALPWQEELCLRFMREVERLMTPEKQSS
Test: Human FAAH fluorescence-based inhibition assay (AMC Arachidonoyl Amide hydrolysis)
Type: biochemical
Conditions: human FAAH from transfected COS-7 cells; 20 μM AMC-Arachidonoyl substrate; 30 min preincubation, 4 hours at room temperature
Description: Exemplary compounds are set forth in the Examples provided below. Compounds were assayed as inhibitors of human FAAH using the method described in detail in Example 19.
The following assays can be used to determine the inhibition of FAAH: (1) a fluorescence-based assay (Manjunath et al., Analytical Biochemistry (2005) 343:143-151); and (2) a microsome-based fluorescent assay (Wang et al., Biomolecular Screening (2006) 1-9).
COS-7 cells were split the day before, 1:5 into 150 mm×25 mm cell culture dishes (Corning Inc., Cat. No. 430599). Transient transfection took place at 30-40% confluency according to FuGENE 6 Transfection Reagent (Roche, Cat. No. 11814 443 001).
The FuGENE transfection 6 reagent (45 uL) was added to 1410 μL of media (DMEM, serum free without pen/strep) in a 15 mL conical tube and incubated at room temp for 5 minutes, followed by the addition of FAAH plasmid DNA ([…]) (OriGene Cat. No. TC119221, Genbank Accession No. NM_001441.1, 0.67 ug/uL) and a further incubation of 15 minutes at room temperature. The resulting solution was added into one dish of 30-40% confluent COS-7 cells in a drop-wise manner. The COS-7 cell dish was subsequently incubated for 48 hours. The cells were then harvested.
Media was aspirated from the dishes and the cells rinsed with 10 mL PBS. The PBS was removed and 3 mL of PBS added to the dish. The dish was scraped to resuspend the cells, and the subsequent cell suspension collected into a 15 mL conical tube. The cells were pelleted by centrifugation at 1200 rpm for 5 minutes in a bench top centrifuge. PBS was removed and the cell pellet snap frozen in liquid nitrogen and stored at −80° C.
COS-7 Cells—FAAH Purification: • (1) Fractionation: Frozen cell pellets from transient transfections were thawed on ice and resuspended in 12.5 mM Hepes pH 8.0, 100 mM NaCl, 1 mM EDTA (10 mL/0.2 g cell pellet). The pellets were dounce homogenized and then sonicated to produce cell extract. The cell extract was subsequently centrifuged at 1000 g to remove cellular debris. The pellet was discarded and the supernatant centrifuged at 13,000 g for 20 minutes. The pellet contained membrane bound FAAH. The supernatant was discarded and the pellet resolubilized. • (2) Re-solubilization: The fraction of interest, (13,000 g, membrane fraction) was re-suspended in 2.3 mL re-suspension buffer (20 mM Hepes pH 7.8, 10% v/v Glycerol, 1 mM EDTA, 1% Triton X-100) and the sample incubated on ice for 1 hour and then centrifuged to remove any particulate matter. The supernatant containing solubilized human FAAH was aliquoted and snap frozen in liquid nitrogen and stored at −80° C. until use. • (3) Characterization: Protein Concentration determined by Bradford assay. • SDS gel and Western blot to confirm presence of FAAH • FAAH activity assay • Km determination—96-well assay • Linear dependence—96-well assay • Standard compound Ki determination—384-well assay
Rat FAAH biochemical assays were carried out in a 96 well flat bottom black non-treated polystyrene plates (Corning Costar Catalogue #3915). FAAH reaction buffer: 50 mM Hepes (pH 7.5), 1 mM EDTA, 0.2% Triton X-100. FAAH substrate-AMC Arachidonoyl Amide (Cayman Chemicals Company, Catalog #10005098). The reaction was read in an Envision microtiter plate reader [Excitation filter 355 nm (40 nm bandpass); Emission filter 460 nm (25 nm bandpass)]. The raw fluorescence was plotted on the y axis and the inhibitor concentration on the x axis to give a dose response inhibition curve. The data was fitted to a single site competitive inhibition equation, fixing the Km for the rat and human enzyme to 12 μM and 9 μM respectively.
The principle of this assay was the hydrolysis of AMC-Arichodonoyl, a fluorescent analogue of Anandamide, which results in the formation of Arachidonic acid and AMC. The formation of AMC results in an increase in fluorescence (see, for example, Manjunath et al., Analytical Biochemistry (2005) 343:143-151; and Wang et al., Biomolecular Screening (2006) 1-9). […]

| Structure (SMILES) | Ki |
| --- | --- |
| CC(C)(C)OC(=O)N1CC=C(B(O)O)CC1 [Example 1] | 100 to 1000 nM |
| CC(=O)N1CC=C(B(O)O)CC1 [Example 3] | > 1000 nM |
| O=C(c1ccc(Cl)cc1)N1CC=C(B(O)O)CC1 [Example 4] | 10 to 100 nM |
| Cc1c(C(=O)N2CC=C(B(O)O)CC2)sc2ccccc12 [Example 5] | 10 to 100 nM |
| Cc1c(CC(=O)N2CC=C(B(O)O)CC2)sc2ccccc12 [Example 6] | 10 to 100 nM |
| CC(C)(C)OC(=O)N1CCC(B(O)O)CC1 [Example 8] | 10 to 100 nM |
| O=C([C@H]1CCCN1)N1CCC(B(O)O)CC1 [Example 15] | > 1000 nM |
| Cc1ccc(S(=O)(=O)N2CCC(B(O)O)CC2)cc1 [Example 16] | 100 to 1000 nM |

Further lines, results first:

| Ki | Structure (SMILES) |
| --- | --- |
| 10 to 100 nM | O=C(OCc1ccccc1)N1CC=C(B(O)O)CC1 [Example 2] |
| 10 to 100 nM | O=C(NCc1ccccc1)N1CC=C(B(O)O)CC1 [Example 7] |
| 10 to 100 nM | O=C(OCc1ccccc1)N1CCC(B(O)O)CC1 [Example 9] |
| 10 to 100 nM | O=C(CCCCc1ccccc1)N1CCC(B(O)O)CC1 [Example 10] |
| 100 to 1000 nM | O=C(c1ccc(Cl)cc1)N1CCC(B(O)O)CC1 [Example 11] |
| 100 to 1000 nM | O=C(c1cnc2ccccc2c1)N1CCC(B(O)O)CC1 [Example 12] |
| 100 to 1000 nM | O=C(c1ccc2ccccc2n1)N1CCC(B(O)O)CC1 [Example 13] |
| > 1000 nM | O=C(CNCc1ccccc1)N1CCC(B(O)O)CC1 [Example 14] |
| > 1000 nM | OB(O)C1CCN(Cc2ccccc2)CC1 [Example 17] |
| 10 to 100 nM | Cc1c(CN2CCC(B(O)O)CC2)sc2ccccc12 [Example 18] |
